Experimental data taken from article PMC4028107, “Adenosine deaminase activity modulation by some street drug: molecular docking simulation and experimental investigation” (DARU Journal of Pharmaceutical Sciences, 2014).
pIC50: −log10 of the molar value.

Assays:
adenosine deaminase [1] = molecular target: T1, adenosine deaminase (Bos taurus, UniProt P56658); assay: Circular dichroism spectroscopy of ADA; parameters: species or system bovine; conditions: far-UV 200–260 nm, pH 7.4; cocaine concentration around 180 μM
T1 construct: Adenosine deaminase (EC 3.5.4.4) extracted from bovine spleen; purchased sigma; host or cells: bovine spleen (tissue extract)
T1 sequence (P56658 1-363): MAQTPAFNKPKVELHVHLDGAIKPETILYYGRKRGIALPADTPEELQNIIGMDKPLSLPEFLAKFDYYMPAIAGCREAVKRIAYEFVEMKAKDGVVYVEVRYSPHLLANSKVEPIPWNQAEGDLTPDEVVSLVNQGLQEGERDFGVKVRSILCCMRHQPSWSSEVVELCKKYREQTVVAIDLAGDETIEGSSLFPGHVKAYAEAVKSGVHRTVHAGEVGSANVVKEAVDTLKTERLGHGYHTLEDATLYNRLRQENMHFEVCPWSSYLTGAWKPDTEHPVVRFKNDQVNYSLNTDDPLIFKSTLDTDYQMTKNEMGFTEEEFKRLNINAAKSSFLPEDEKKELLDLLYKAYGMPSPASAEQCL
Method: CD spectra were measured in the far-UV (200–260 nm) region with JASCO J-715 spectropolarimeter (Japan). JASCO J-715 software not only gave us the possibility of data smoothing, but also used to predict the secondary structure changes of the protein according to the statistical method. Each scan was recorded in 1 nm increments at 37°C, repeated three times, and averaged. The protein was in 0.1 M PBS buffer, pH = 7.4, and its concentration was adjusted to 2 mg/ml in 1 cm path length cuvette. The results were expressed in molar ellipticity [θ] (deg cm^2.dmol^−1).

adenosine deaminase [2] = molecular target: T1, adenosine deaminase; assay: Fluorescence spectroscopy of ADA (Trp emission); assay type: binding, bovine; conditions: excitation 290 nm, emission 300-400 nm, pH 7.4, enzyme 6 μM, compounds 1.7 to 73.4 μM
Method: Fluorescence spectroscopy was performed on a Hitachi fluorescence spectrophotometer model MPF-4 with 1 cm path length fluorescence cuvette and final volume of 400 μL. The excitation wavelength was adjusted in 290 nm, and the emission was scanned every 1 nm in the range of 300 to 400 nm.

[3] = molecular target: T2, Adenosine deaminase (EC 3.5.4.4) extracted from bovine spleen (Bos taurus, UniProt P56658); assay: biochemical; assay type: biochemical; conditions: for pIC50: 2 mg/ml adenosine deaminase enzyme, 37°C, 30 min incubation, PBS pH 7.4, compounds 5–300 μM
T2 construct: Adenosine deaminase (EC 3.5.4.4) extracted from bovine spleen; purchased sigma; host or cells: bovine spleen (tissue extract)
T2 sequence (P56658 1-363): T1 sequence (P56658 1-363)
Method: Adenosine deaminase (EC 3.5.4.4) extracted from bovine spleen was purchased from sigma, and all other used materials were of analytical grade and acquired from Merck. PBS that is used in assay was adjusted at 7.4, at which, enzyme has optimal activity in [38, 39]. All solutions were prepared in MilliQ (Millipore, USA) water.
Released ammonia resulted by enzyme activity was determined by specific Berthelot colorimetric method which was used for micro determination of ADA activity in serum. […] In this process sodium nitroprusside is used as the catalyst. The reaction was initiated by addition of adenosine as a substrate at 37°C to preincubated enzyme with different concentrations of tested compounds at different concentrations (5–300 μM). Finally, the enzymatic reaction was stopped at the end of 30 minutes of incubation by adding phenol nitroprusside solution. The mixture kept again for 30 minutes at 37°C before absorbance determination.
Obtained absorbance was normalized through blank sample, and IC50 values were calculated by Prism software (Ver. 5, GraphPad Software Inc., San Diego CA,).

SMILES | change in CD spectra of ADA (adenosine deaminase [1]) | change in fluorescence spectra of ADA (adenosine deaminase [2]) | pIC50 [3] | concentration up to which ADA was activated [3] [µM]
COC(=O)[C@H]1[C@@H](OC(=O)c2ccccc2)C[C@@H]2CC[C@H]1N2C [Cocaine] | drastic changes | bathochromic shift | 3.74 | 
CCOc1ccc2c3c1O[C@H]1[C@@H](O)C=C[C@H]4[C@@H](C2)N(C)CC[C@@]341 [Ethylmorphine] |  | do not show noticeable change and shift | 4.46 | 
COC1=CC=C2[C@H]3Cc4ccc(OC)c5c4[C@@]2(CCN3C)[C@H]1O5 [Thebaine] |  | do not show noticeable change and shift | 3.79 | 50
